According to patent publication US10646591B2, “Imaging agents for imaging protease activity and uses thereof” (The United States of America, as represented by the …, priority 2011, dated 2020):

Legend:
[1] = tested on: MMP- and αvβ3 integrin receptor-positive U87MG tumor; test: In vivo optical imaging of U87MG tumor-bearing mice; details: for fluorescent signals in the tumor over time: 0.5 nmol injected
Description: Female athymic nude mice were supplied from Harlan at 4 to 5 weeks of age. The U87MG tumor model was generated by subcutaneous injection of 5×10^6 cells in Matrigel (BD Biosciences, Sparks, Md.) into the right front flank of female athymic nude mice at a volume of about 80 μl. The mice were then used for optical studies when the tumor volume reached about 300 mm^3. All animal studies were conducted in accordance with the principles and procedures outlined in the Guide for the Care and Use of Laboratory Animals and were approved by the Institutional Animal Care and Use Committee of Clinical Center, NIH.
Optical imaging acquirement and analysis were done using a Maestro 2.10 in vivo imaging system (CRI). […] The molar concentration of each samples were calculated by the sample weight. At 1, 2, 3, and 4 hours post-injection, the mice were subjected to optical imaging using appropriate filters for Cy5.5 and CW800. For the inhibition experiment, MMP inhibitor was intratumorally injected into tumor bearing mice 30 minutes before the imaging agent injection. After image acquisition, spectral unmixing yielded the pseudocolor images of the pure spectrum of respective dyes. Images were normalized and analyzed using Maestro software. For quantitative comparison, regions of interest (ROI) were drawn over tumors and muscle, and the average signal ([…]) for each area was measured. Values were expressed as mean±s.d. for a group of three animals.
It should be noted that only a limited dose of dye-labeled peptide probe like compounds 5 and 7 can be injected for whole body imaging, because of its high fluorescent background from the dye. In contrast, since fluorogenic probes are strongly quenched and a majority of the probe is activated at the target site, higher doses of the imaging agents of the present invention can be injected to enhance the ratio of region-of-interest (ROI) signal of tumor to normal tissue, muscle (T/N), at very early times. After injection, in vivo optical imaging was performed for 4 hours using a small animal imaging system (Maestro 2) equipped with appropriate filters for Cy5.5 and CW800.

MMP-positive SCC-7 tumor = test: In vivo NIR fluorescence imaging of SCC-7 tumor-bearing mice; details: intravenous, imaging for 24 hours, compared to other MMP-Pns and MMPSense 680
Description: Squamous cell carcinoma SCC-7 were cultured in RPMI 1640 medium containing 10% (v/v) fetal bovine serum (Invitrogen, Carlsbad, Calif.) supplemented with penicillin (100 μg/ml) and streptomycin (100 μg/ml) at 37° C. with 5% CO2. The SCC-7 tumor model was developed by subcutaneous injection of 1×10^6 cells into the right front flank of female athymic nude mice (Harlan Laboratories, Indianapolis, Ind.). The mice were used for optical studies when the tumor volume reached about 300 mm^3. […]
Optical image acquisition and analysis were done using a Maestro 2 imaging system (Cambridge Research & Instrumentation, Inc. (CRI), Woburn, Mass.). […] Images were normalized and analyzed by using Maestro software. For quantitative comparison, the regions of interest (ROI) were drawn over tumor (T) and normal tissue (N, muscle), and the average signal (×10^6 photons×cm^−2×s^−1) for each area was measured. […]
The MMP-Pns imaging agents used in Example 2, were then used to create a video image of the activity of MMPs in vivo. […] The MMP-P12 generated strong NIR fluorescence signals as early as 20 to 30 minutes after the probe injection and enabled clear visualization of MMPs in the tumor region thereafter.

U87MG tumor = test: Ex vivo biodistribution in U87MG tumor-bearing mice; details: 4 hour time point
Description: Ex vivo imaging of excised tumor and organs further confirmed the targeting specificity and activation of the probes (data not shown). At 4 hours post-injection, the mice were sacrificed and major organ tissues and tumors were harvested, and placed on black paper for ex vivo imaging. For quantitative comparison, ROIs were drawn over tumors and the other organs, and the average signal for each area was measured. The results were presented as the average scaled signal from the organs and tumors. Values were expressed as mean±s.d. for a group of three animals.
T/N ratios are illustrated in FIG. 12A. […] After whole-mouse imaging at a 4 hour time point, tumors and organs were carefully removed and the biodistribution of compounds 4 and 6 was evaluated (FIG. 12B).

U87MG cells = test: Fluorescent microscopic study of receptor specificity in fixed U87MG cells; type: cell-based, human
Description: The U87MG cell is known to have high αvβ3 integrin density on the cell surface. […] Next, receptor specificity of the probes in cell culture was verified by fluorescent microscopic studies. […] (data not shown).

CC1(C)C(/C=C/C2=C(Oc3ccc(S(=O)(=O)O)cc3)C(=C/C=C3/N(CCCCS(=O)(=O)O)c4ccc(S(=O)(=O)O)cc4C3(C)C)/CCC2)=[N+](CCCCCC(=O)NCCCC[C@@H]2NC(=O)[C@@H](Cc3ccc(O)cc3)NC(=O)[C@H](CC(=O)O)NC(=O)CNC(=O)[C@H](CCCNC(=N)N)NC2=O)c2ccc(S(=O)(=O)O)cc21 [compound 7]
fluorescent signals in the tumor over time [1]: gradually increased

MMP-P4: Cy5.5-GPLGVRGK(BHQ3)GG-R, R = -NH(CH2CH2O)4H
onset of activation in vivo, NIR fluorescence in tumor region (MMP-positive SCC-7 tumor): early onset of activation in vivo

CCN(CC)c1ccc2nc3ccc(/N=N/c4ccc(N(C)CCCC(=O)NCCCC[C@H](NC(=O)CNC(=O)[C@H](CCCNC(=N)N)NC(=O)[C@@H](NC(=O)CNC(=O)[C@H](CC(C)C)NC(=O)[C@@H]5CCCN5C(=O)CNC(=O)CCCCCN5/C(=C/C=C/C=C/C6=[N+](CC)c7ccc8c(S(=O)(=O)O)cc(S(=O)(=O)[O-])cc8c7C6(C)C)C(C)(C)c6c5ccc5c(S(=O)(=O)O)cc(S(=O)(=O)[O-])cc65)C(C)C)C(=O)NCC(=O)NCC(=O)NCCCC[C@@H]5NC(=O)[C@@H](Cc6ccc(O)cc6)NC(=O)[C@H](CC(=O)O)NC(=O)CNC(=O)[C@H](CCCNC(=N)N)NC5=O)cc4)cc3[n+](-c3ccccc3)c2c1 [compound 4]
ex vivo biodistribution (site of activation) (U87MG tumor): predominantly activated in the tumors
NIR fluorescence signal from the tumor with MMP inhibitor ([1]; MMP inhibitor intratumorally 30 minutes before probe): significantly reduced
tumor uptake with excess unlabeled c(RGDyK) ([1]; c(RGDyK) 200 nmol, 30 minutes post-injection): effectively blocked
brightness of NIR fluorescent images ([1]; from 1 hour post-injection): brighter NIR fluorescent images compared to compound 6
visualization of MMP expression in MMP positive tumor ([1]; intravenous, imaging for 4 hours): enabled visualization of MMP expression

CC[N+]1=C(/C=C/C=C/C=C2/N(CCCCCC(=O)NCC(=O)N3CCC[C@H]3C(=O)N[C@@H](CC(C)C)C(=O)NCC(=O)N[C@H](C(=O)N[C@@H](CCCNC(=N)N)C(=O)NCC(=O)N[C@@H](CCCCN)C(=O)NCC(=O)NCC(=O)NCCCC[C@@H]3NC(=O)[C@@H](Cc4ccc(O)cc4)NC(=O)[C@H](CC(=O)O)NC(=O)CNC(=O)[C@H](CCCNC(=N)N)NC3=O)C(C)C)c3ccc4c(S(=O)(=O)O)cc(S(=O)(=O)O)cc4c3C2(C)C)C(C)(C)c2c1ccc1c(S(=O)(=O)O)cc(S(=O)(=O)O)cc21 [compound 5]
fluorescent signals on the cell membranes (U87MG cells; 30 minutes of incubation at 37° C.): Strong positive fluorescent signals
binding with receptor blocking by excess c(RGDyK) (U87MG cells; blocking dose of c(RGDyK) 10 μM): significantly decreased
fluorescent signals in the tumor over time [1]: gradually increased
